Measured values taken from ChEMBL document CHEMBL6121000, “Corosolic acid and its derivatives targeting MCCC1 against insulin resistance and their hypoglycemic effect on type 2 diabetic mice” (Eur J Med Chem, 2025).
≈ marks a conversion by molar mass, not a printed value. Calls of active or inactive are those of the source. The calls are words filed in the database; no cut-off is given here.

Experiments:
HepG2 [1] = assay: (§1) Cytotoxicity against human HepG2 cells assessed as cell viability at 80 uM incubated for 24 hrs by CCK8 assay relative to control; assay type: toxicity, cell-based; details: hepg2, 24 h, 80 µM
HepG2 [2] = assay: Inhibition of insulin resistance in human HepG2 cells assessed as decrease in GlcN-induced glucose production at 20 uM preincubated for 1 hr followed by GlcN treatment for 18 hrs and subsequent insulin stimulation for 20 mins; assay type: functional, cell-based; details: time 19.33 hrs
[3] = as §1; assay type: toxicity, cell-based; details: HepG2 cells, read-out: Activity
[4] = Solubility of compound in PBS; assay type: physicochemical
[5] = Clearance in Sprague-Dawley rat at 20 mg/kg, po measured for 24 hrs by HPLC-ESI-MS analysis; assay type: ADME, organism-based; details: in vivo
[6] = Tmax in Sprague-Dawley rat at 20 mg/kg, po measured for 24 hrs by HPLC-ESI-MS analysis; assay type: ADME, organism-based; details: in vivo
[7] = Toxicity in Sprague-Dawley rat assessed as damage in spleen at 20 mg/kg, po for 5 days; assay type: organism-based; details: in vivo, 120 h, time 5 day
[8] = AUC (0 to t) in Sprague-Dawley rat at 20 mg/kg, po measured for 24 hrs by HPLC-ESI-MS analysis; assay type: ADME, organism-based; details: in vivo
Mus musculus [9] = assay: Hypoglycemic activity in HFD-fed STZ-induced diabetic C57BL/6J mouse model assessed as decrease in blood glucose level at 20 mg/kg, po administered everyday for 3 weeks; assay type: functional, organism-based
[10] = Oral bioavailability in Sprague-Dawley rat at 20 mg/kg measured for 24 hrs by HPLC-ESI-MS analysis; assay type: ADME, organism-based; details: in vivo
HepG2 [11] = assay: Cytotoxicity against human HepG2 cells assessed as cell survival at 40 uM by MTT assay; assay type: toxicity, cell-based; details: hepg2, 40 µM
[12] = Volume of distribution in Sprague-Dawley rat at 20 mg/kg, po measured for 24 hrs by HPLC-ESI-MS analysis; assay type: ADME, organism-based; details: in vivo
Mus musculus [13] = assay: Inhibition of glucose production in HFD-fed STZ-induced diabetic C57BL/6J mouse model at 20 mg/kg, po administered everyday for 3 weeks; assay type: functional, organism-based
Mus musculus [14] = assay: Improvement in hepatic total cholesterol level of HFD-fed STZ-induced diabetic C57BL/6J mouse model at 20 mg/kg, po administered everyday for 3 weeks; assay type: functional, organism-based
[15] = Cytotoxicity against human HepG2 cells assessed as cell survival at 20 uM by MTT assay relative to control; assay type: toxicity, cell-based; details: read-out: Survival
HepG2 [16] = assay: Lipid lowering activity in human HepG2 cells assessed as inhibition of FFA-induced triglyceride content at 20 uM preincubated for 1 hr followed by FFA treatment for 24 hrs relative to control; assay type: functional
[17] = Toxicity in Sprague-Dawley rat assessed as reduction in number of crypts in colon tissue at 20 mg/kg, po for 5 days; assay type: organism-based; details: in vivo, 120 h, time 5 day
[18] = MRT (0 to t) in Sprague-Dawley rat at 20 mg/kg, po measured for 24 hrs by HPLC-ESI-MS analysis; assay type: ADME, organism-based; details: in vivo
[19] = Cytotoxicity against human HepG2 cells assessed as cell survival at 10 uM by MTT assay relative to control; assay type: toxicity, cell-based; details: read-out: Survival
HepG2 [20] = assay: Lipid lowering activity in human HepG2 cells assessed as reduction in FFA-induced triglyceride content at 20 uM preincubated for 1 hr followed by FFA treatment for 24 hrs; assay type: functional, cell-based; details: time 25.0 hrs
Mus musculus [21] = assay: Hypoglycemic activity in HFD-fed STZ-induced diabetic C57BL/6J mouse model assessed as reversal of diabetes-reduced MCCC1 level in liver at 20 mg/kg, po administered everyday for 3 weeks by Western blot analysis; assay type: functional, organism-based
[22] = Half life in Sprague-Dawley rat at 20 mg/kg, po measured for 24 hrs by HPLC-ESI-MS analysis; assay type: ADME, organism-based; details: in vivo
[23] = Toxicity in Sprague-Dawley rat assessed as damage in liver at 20 mg/kg, po for 5 days; assay type: organism-based; details: in vivo, 120 h, time 5 day
[24] = Toxicity in Sprague-Dawley rat assessed as damage in lungs at 20 mg/kg, po for 5 days; assay type: organism-based; details: in vivo, 120 h, time 5 day
[25] = Toxicity in Sprague-Dawley rat assessed as inflammatory cell infiltration in colon tissue at 20 mg/kg, po for 5 days; assay type: organism-based; details: in vivo, 120 h, time 5 day
Mus musculus [26] = assay: Hypoglycemic activity in HFD-fed STZ-induced diabetic C57BL/6J mouse model assessed as increase in hepatic glycogen synthesis at 20 mg/kg, po administered everyday for 3 weeks; assay type: functional, organism-based
Mus musculus [27] = assay: Hypoglycemic activity in HFD-fed STZ-induced diabetic C57BL/6J mouse model assessed as increase in GLUT4 level in liver at 20 mg/kg, po administered everyday for 3 weeks by Western blot analysis; assay type: functional, organism-based
Mus musculus [28] = assay: Hypoglycemic activity in HFD-fed STZ-induced diabetic C57BL/6J mouse model assessed as increase in AKT phosphorylation in liver at 20 mg/kg, po administered everyday for 3 weeks by Western blot analysis; assay type: functional, organism-based
[29] = Cmax in Sprague-Dawley rat at 20 mg/kg, po measured for 24 hrs by HPLC-ESI-MS analysis; assay type: ADME, organism-based; details: in vivo
Mus musculus [30] = assay: Hypoglycemic activity in HFD-fed STZ-induced diabetic C57BL/6J mouse model assessed as improvement in triglyceride level in liver at 20 mg/kg, po administered everyday for 3 weeks; assay type: functional, organism-based
[31] = Toxicity in Sprague-Dawley rat assessed as damage in colon at 20 mg/kg, po for 5 days; assay type: organism-based; details: in vivo, 120 h, time 5 day
[32] = Toxicity in Sprague-Dawley rat assessed as damage in heart at 20 mg/kg, po for 5 days; assay type: organism-based; details: in vivo, 120 h, time 5 day
HepG2 [33] = assay: Cytotoxicity against human HepG2 cells assessed as cell survival at 10 to 40 uM by MTT assay; assay type: toxicity, cell-based; details: hepg2, 40 µM, dose 10-40 µM
Mus musculus [34] = assay: Hypoglycemic activity in HFD-fed STZ-induced diabetic C57BL/6J mouse model assessed as improvement in weight loss at 200 mg/kg, po administered everyday for 3 weeks; assay type: functional, organism-based

In the case of `C[C@H]1[C@H](C)CC[C@]2(C(=O)NCCCCCC(=O)O)CC[C@]3(C)C(=CC[C@@H]4[C@@]5(C)C[C@@H](O)[C@H](O)C(C)(C)[C@@H]5CC[C@]43C)[C@H]12`, the Activity (HepG2 [1]) is reported as “Non-toxic”.

With `CC(=O)OC[C@H]1O[C@H](OC(=O)[C@]23CC[C@@H](C)[C@H](C)[C@H]2C2=CC[C@@H]4[C@@]5(C)C[C@@H](O)[C@H](O)C(C)(C)[C@@H]5CC[C@@]4(C)[C@]2(C)CC3)C(OC(C)=O)[C@H](OC(C)=O)C1OC(C)=O` (single isomer, unassigned) the inhibition (HepG2 [2]) was “Active” and the viability at 24 h, 80 µM [3] was over 80%.

With `CCOC(=O)[C@H](CO)NC(=O)[C@]12CC[C@@H](C)[C@H](C)[C@H]1C1=CC[C@@H]3[C@@]4(C)C[C@@H](O)[C@H](O)C(C)(C)[C@@H]4CC[C@@]3(C)[C@]1(C)CC2` the inhibition (HepG2 [2]) was “Active” and the viability at 24 h, 80 µM [3] was over 80%.

In the case of `COC(=O)[C@H](Cc1ccccc1)NC(=O)[C@]12CC[C@@H](C)[C@H](C)[C@H]1C1=CC[C@@H]3[C@@]4(C)C[C@@H](O)[C@H](O)C(C)(C)[C@@H]4CC[C@@]3(C)[C@]1(C)CC2`, the inhibition (HepG2 [2]) is reported as “Active” and the viability at 24 h, 80 µM [3] is reported as over 80%.

With `CCOC(=O)[C@H](CC(C)C)NC(=O)[C@]12CC[C@@H](C)[C@H](C)[C@H]1C1=CC[C@@H]3[C@@]4(C)C[C@@H](O)[C@H](O)C(C)(C)[C@@H]4CC[C@@]3(C)[C@]1(C)CC2` the inhibition (HepG2 [2]) was “Active” and the viability at 24 h, 80 µM [3] was over 80%.

In the case of `C[C@H]1[C@H](C)CC[C@]2(C(=O)O)CC[C@]3(C)C(=CC[C@@H]4[C@@]5(C)C[C@@H](O)[C@H](O)C(C)(C)[C@@H]5CC[C@]43C)[C@H]12` [COROSOLIC ACID], the solubility [4] is reported as 0.55 µM (≈ 0.26 µg/mL), the CL/F [5] is reported as 23.1 mL/min/kg and the Tmax [6] is reported as 0.5 h. For the same molecule, the inhibition (HepG2 [2]) was “Active”, the Activity [7] was “Non-toxic” and the AUC(0-t) at 24 h [8] was 9200 ng·h/mL. The Activity (Mus musculus [9]) was “Active; Slight Decrease Was Observed”, the bioavailability [10] was under 1% and the Activity (HepG2 [11]) was “Toxic”. The Vd [12] was 33.04048 L/kg, the inhibition (Mus musculus [13]) was “inactive” and the Activity (Mus musculus [14]) was “inactive”. The viability at 20 µM [15] was 101%, the inhibition at 20 µM (HepG2 [16]) was 61.6% and the Activity [17] was “Non-toxic”. For the same molecule, the MRT last at 24 h [18] was 10.2 h, the viability at 10 µM [19] was 96% and the Activity (HepG2 [20]) was “Active”. The Activity (Mus musculus [21]) was “Active”, the half-life [22] was 16.5 h and the viability at 24 h, 80 µM [3] was 13.5%. For the same molecule, the Activity [23] was “Non-toxic”, the Activity [24] was “Non-toxic” and the Activity [25] was “Non-toxic”. The Activity (Mus musculus [26]) was “Active”, the Activity (Mus musculus [27]) was “Active; Slight Increase Observed” and the Activity (Mus musculus [28]) was “Active”. The Cmax [29] was 802 ng/mL, the Activity (Mus musculus [30]) was “Active” and the Activity [31] was “Non-toxic”. For the same molecule, the Activity [32] was “Non-toxic”.

In the case of `CCOC(=O)[C@H](CS)NC(=O)[C@]12CC[C@@H](C)[C@H](C)[C@H]1C1=CC[C@@H]3[C@@]4(C)C[C@@H](O)[C@H](O)C(C)(C)[C@@H]4CC[C@@]3(C)[C@]1(C)CC2`, the inhibition (HepG2 [2]) is reported as “Active” and the viability at 24 h, 80 µM [3] is reported as over 80%.

For `C[C@H]1[C@H](C)CC[C@]2(C(=O)NCCCNC(=O)CCCC[C@H]3SC[C@H]4NC(=O)N[C@H]43)CC[C@]3(C)C(=CC[C@@H]4[C@@]5(C)C[C@@H](O)[C@H](O)C(C)(C)[C@@H]5CC[C@]43C)[C@H]12`, the Activity (HepG2 [33]) was “Non-toxic”.

In the case of `CC(=O)O[C@@H]1C[C@]2(C)[C@H]3CC=C4[C@@H]5[C@@H](C)[C@H](C)CC[C@]5(C(=O)NCCCN)CC[C@@]4(C)[C@]3(C)CC[C@H]2C(C)(C)[C@H]1OC(C)=O`, the inhibition (HepG2 [2]) is reported as “Active” and the viability at 24 h, 80 µM [3] is reported as 8.9%.

With `CN(C)C(=N)NC(=N)N` the Activity (Mus musculus [34]) was “Active”.

With `CC(=O)O[C@H]1CC[C@]2(C)[C@H]3CC=C4[C@@H]5[C@@H](C)[C@H](C)CC[C@]5(C(=O)OCc5ccccc5)CC[C@@]4(C)[C@]3(C)CC[C@H]2C1(C)C` the inhibition at 20 µM (HepG2 [16]) was 58.5% and the viability at 24 h, 80 µM [3] was over 80%.

In the case of `CCOC(=O)[C@H](C)NC(=O)[C@]12CC[C@@H](C)[C@H](C)[C@H]1C1=CC[C@@H]3[C@@]4(C)C[C@@H](OC(C)=O)[C@H](OC(C)=O)C(C)(C)[C@@H]4CC[C@@]3(C)[C@]1(C)CC2`, the inhibition (HepG2 [2]) is reported as “Active”, the inhibition at 20 µM (HepG2 [16]) is reported as 63.1% and the viability at 24 h, 80 µM [3] is reported as over 80%.
